System: aldose reductase
Experiment: in vivo aldose reductase inhibition in streptozotocin-diabetic rats (residual sorbitol in sciatic nerve)
Settings: oral dose necessary to reduce residual sorbitol level in sciatic nerve of dosed diabetic rat to level similar to normal undosed rat; dosed daily 2-5 days
Procedure: Thus, rats are made diabetic (as evidenced by severe glucosuria being present) by dosing with streptozotocin. The animals are then dosed daily with the test compound for 2-5 days. The animals are then killed 2-4 hours after the final dose and the eye lenses and/or sciatic nerves are removed. After a standard work-up procedure the residual sorbitol levels in each tissue are determined by gas liquid chromatography after conversion to the poly-trimethylsilyl derivatives. Inhibition of aldose reductase in vivo is then assessed by comparing the residual sorbitol levels in tissues from the dosed diabetic group of rats with those of an undosed group of diabetic rats and an undosed, normal group of rats.
In the above in vivo test, an effective dose (ED) may be defined as the oral dose necessary to reduce the residual sorbitol level in the sciatic nerve of a dosed rat to a level similar to that in sciatic nerve in a normal, undosed-rat.

SMILES: O=C1CC2(C(=O)N1)C(=O)N(Cc1ccc(Br)cc1F)c1c(F)cccc12 (single isomer, unassigned) [l'-(4-bromo-2-fluorobenzyl)-7'-fluoro-spiro[pyrrolidine-3,3'-indolinel-2,2',5-trione]
- oral ED: approximately 5.6 mg./kg.

SMILES: O=C1CC2(C(=O)N1)C(=O)N(Cc1ccc(Br)cc1F)c1c(Cl)cccc12 (single isomer, unassigned) [1'-(4-bromo-2-fluorobenzyl)-7'-chloro-spiro[pyrrolidine-3,3'-indoline]-2,2'5-trione]
- oral ED: approximately 1.1 mg./kg.

Reference: EP0168181A1, “Cyclic amides” (IMPERIAL CHEMICAL INDUSTRIES PLC, priority 1984, dated 1986)
